Consider 16 compounds from US9796711B2, “Substituted pyrazolo[3,4-b]pyridin-6-carboxylic acids and method of use” (AbbVie S.àr.l., priority 2015, dated 2017).

For assay [1], the target named is T1, ΔF508-CFTR (Homo sapiens, UniProt P13569, DEL508-508).
T1 construct: host or cells: CFBE41o-, doxycycline-inducible
The assay can be described thus: CFTR cell surface levels using HRP-tagged ΔF508-CFTR expressing CFBE cells, in the presence of a co-corrector. Type of assay: cell-based. The settings on record: HRP-tagged ΔF508-CFTR expressing CFBE cells, in the presence of 3 μM co-corrector; for EC50: read-out: EC50. The essentials: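 Cells were seeded with 0.5 μg/mL doxycycline and held 68 h at 37 °C. Test compounds plus 3 μM co-corrector (final 0.1% DMSO) were then added for 20 h at 33 °C. Washed cells received HRP substrate, and luminescence was normalized between DMSO and 3 μM co-corrector controls.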

Assay [2] addresses T1, ΔF508-CFTR. The assay can be described thus: CFTR cell surface levels using HRP-tagged ΔF508-CFTR expressing CFBE cells, intrinsic corrector capacity. Type of assay: cell-based. The following applies: for EC50: read-out: EC50. The essentials:
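Here the cells express ΔF508-CFTR with horseradish peroxidase inserted in extracellular loop 4, so only rescued channel at the surface gives luminescent signal. Compounds act on their own, 20 h at the reduced temperature of 33 °C; values are percent activity relative to DMSO and a 3 μM corrector.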

The mark [3] stands for this setting: HRP-tagged ΔF508-CFTR CFBE41o- cells, compounds alone (intrinsic corrector capacity), 20 hours at 33° C., positive control 3 μM corrector.
Where [4] appears, read: HRP-tagged ΔF508-CFTR CFBE41o- cells, compounds alone (intrinsic corrector capacity), 20 hours at 33° C.
[5] abbreviates: HRP-tagged ΔF508-CFTR expressing CFBE cells, intrinsic corrector capacity (no co-corrector), 33° C., 20 hours.

SMILES strings stand for the structures. Some results are limits rather than exact numbers.

T1 sequence (P13569 with tags, fused parts or gaps DEL508-508): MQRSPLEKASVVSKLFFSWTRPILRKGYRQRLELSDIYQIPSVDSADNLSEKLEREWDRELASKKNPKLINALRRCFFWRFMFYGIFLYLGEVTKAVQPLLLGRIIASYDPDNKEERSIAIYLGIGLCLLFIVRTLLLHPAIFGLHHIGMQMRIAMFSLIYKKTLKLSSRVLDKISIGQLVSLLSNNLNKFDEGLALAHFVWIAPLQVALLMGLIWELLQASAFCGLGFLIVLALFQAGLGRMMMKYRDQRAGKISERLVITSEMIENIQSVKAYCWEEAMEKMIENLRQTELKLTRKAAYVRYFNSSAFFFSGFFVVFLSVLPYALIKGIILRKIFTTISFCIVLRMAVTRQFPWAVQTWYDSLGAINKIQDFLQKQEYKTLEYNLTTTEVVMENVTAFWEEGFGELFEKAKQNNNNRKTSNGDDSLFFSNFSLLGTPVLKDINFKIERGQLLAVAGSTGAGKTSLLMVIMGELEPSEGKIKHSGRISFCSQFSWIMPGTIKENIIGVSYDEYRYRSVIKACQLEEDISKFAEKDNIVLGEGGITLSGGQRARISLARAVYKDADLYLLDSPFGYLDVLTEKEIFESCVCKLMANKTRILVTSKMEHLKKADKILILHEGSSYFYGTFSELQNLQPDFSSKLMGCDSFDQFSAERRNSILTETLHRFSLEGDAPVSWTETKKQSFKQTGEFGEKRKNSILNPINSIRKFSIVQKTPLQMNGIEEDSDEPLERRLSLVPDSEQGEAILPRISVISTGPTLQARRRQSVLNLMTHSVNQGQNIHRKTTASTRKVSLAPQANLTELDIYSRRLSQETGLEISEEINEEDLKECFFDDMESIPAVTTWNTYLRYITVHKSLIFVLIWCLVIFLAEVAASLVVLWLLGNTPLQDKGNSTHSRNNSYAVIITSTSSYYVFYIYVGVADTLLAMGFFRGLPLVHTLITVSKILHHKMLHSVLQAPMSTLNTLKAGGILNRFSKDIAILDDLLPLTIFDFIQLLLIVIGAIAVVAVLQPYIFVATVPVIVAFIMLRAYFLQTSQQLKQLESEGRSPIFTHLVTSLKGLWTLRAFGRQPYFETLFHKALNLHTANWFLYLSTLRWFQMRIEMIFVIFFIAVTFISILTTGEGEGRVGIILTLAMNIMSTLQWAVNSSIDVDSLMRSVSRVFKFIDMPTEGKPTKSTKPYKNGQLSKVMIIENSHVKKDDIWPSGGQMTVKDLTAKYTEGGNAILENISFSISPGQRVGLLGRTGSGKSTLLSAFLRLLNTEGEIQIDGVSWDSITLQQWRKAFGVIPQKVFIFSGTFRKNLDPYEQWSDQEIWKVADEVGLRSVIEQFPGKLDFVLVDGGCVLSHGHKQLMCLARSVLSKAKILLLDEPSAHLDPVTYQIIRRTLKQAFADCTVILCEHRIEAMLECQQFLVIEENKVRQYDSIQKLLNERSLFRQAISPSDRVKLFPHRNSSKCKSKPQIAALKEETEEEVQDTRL

One may read the EC50 as the midpoint of the concentration-response curve. Consider `Cc1cccc(-n2nc(C(C)C)c3c(-c4ccc(N5CCC(C#N)CC5)nc4)cc(C(=O)O)nc32)c1` [compound 175, 4-[6-(4-cyanopiperidin-1-yl)pyridin-3-yl]-1-(3-methylphenyl)-3-(propan-2-yl)-1H-pyrazolo[3,4-b]pyridine-6-carboxylic acid], for which the entries for the “% Activation” value on ΔF508-CFTR [1] and at ΔF508-CFTR [2] (setting [3]) were 522.6% and 321.67%, respectively. Moreover, the EC50 at ΔF508-CFTR [1] amounted to 532 nM; at ΔF508-CFTR [2] (setting [4]), 809 nM.

Consider `O=C(O)c1cc(N2CCN3C[C@@H](F)C[C@H]3C2)c2c(C3CCC3)nn(-c3ccccc3)c2n1` [compound 515, 3-cyclobutyl-4-[(7S,8aS)-7-fluorohexahydropyrrolo[1,2-a]pyrazin-2(11/)-yl]-1-phenyl-1H-pyrazolo[3,4-b]pyridine-6-carboxylic acid], for which the “% Activation” value was 173.5% at ΔF508-CFTR [1] and 15.59% at ΔF508-CFTR [2] (setting [5]). Moreover, the results for the EC50 at ΔF508-CFTR [1] and on ΔF508-CFTR [2] (setting [5]) were 3330 nM and greater than 10000 nM, respectively.

`CC(=O)N1CC(Oc2nn(-c3ccccc3)c3nc(C(=O)O)cc(-c4ccc(N5CCOCC5)cc4)c23)C1` [compound 497, 3-[(1-acetylazetidin-3-yl)oxy]-4-[4-(morpholin-4-yl)phenyl]-1-phenyl-1H-pyrazolo[3,4-b]pyridine-6-carboxylic acid]: at ΔF508-CFTR [1], the “% Activation” value was found to be 157.55% and the EC50 stood at 3340 nM. At ΔF508-CFTR [2] (setting [5]), the “% Activation” value amounted to 24.76% and the EC50 was greater than 10000 nM.

On to `Cc1nn(-c2ccccc2)c2nc(C(=O)O)cc(-c3ccc(N4CCOC(C)(C)C4)cc3)c12` [compound 119, 4-[4-(2,2-dimethylmorpholin-4-yl)phenyl]-3-methyl-1-phenyl-1H-pyrazolo[3,4-b]pyridine-6-carboxylic acid], for which the entries for the “% Activation” value on ΔF508-CFTR [1] and at ΔF508-CFTR [2] (setting [3]) were 413.2% and 207.25%, respectively. Also, the EC50 on ΔF508-CFTR [1] came to 624 nM; at ΔF508-CFTR [2] (setting [4]), 915 nM.

For `CC(C)c1nn(C2CCCC2)c2nc(C(=O)O)cc(-c3cnc(N(C)C)nc3)c12` [compound 67, 1-cyclopentyl-4-[2-(dimethylamino)pyrimidin-5-yl]-3-(propan-2-yl)-1H-pyrazolo[3,4-b]pyridine-6-carboxylic acid], the figures for the “% Activation” value at ΔF508-CFTR [1] and on ΔF508-CFTR [2] (setting [3]) were 280.35% and 117.6%, respectively. Besides, the values for the EC50 at ΔF508-CFTR [1] and at ΔF508-CFTR [2] (setting [4]) were 1260 nM and 1590 nM, respectively.

In the case of `CC(C)c1nn(-c2cccc(N(C)C)c2)c2nc(C(=O)O)cc(OCC3CCOCC3)c12` [compound 602, 1-[3-(dimethylamino)phenyl]-4-[(oxan-4-yl)methoxy]-3-(propan-2-yl)-1H-pyrazolo[3,4-b]pyridine-6-carboxylic acid], the results for the “% Activation” value on ΔF508-CFTR [1] and at ΔF508-CFTR [2] (setting [5]) were 393.4% and 159.3%, respectively. For the same compound, the EC50 came out at 134 nM at ΔF508-CFTR [1] and 256 nM on ΔF508-CFTR [2] (setting [5]).

Take `O=C(O)c1cc(N2CCC(CN3CC(OCC(F)F)C3)CC2)c2c(C3CCC3)nn(-c3ccccc3)c2n1` [compound 835, 3-cyclobutyl-4-(4-{[3-(2,2-difluoroethoxy)azetidin-1-yl]methyl}piperidin-1-yl)-1-phenyl-1H-pyrazolo[3,4-b]pyridine-6-carboxylic acid]: at ΔF508-CFTR [1], the “% Activation” value came out at 466.9% and the EC50 came out at 67.6 nM. At ΔF508-CFTR [2] (setting [5]), the “% Activation” value turned out to be 291.5% and the EC50 came to 163 nM.

Regarding `Cc1nn(-c2ccccc2)c2nc(C(=O)O)cc(N3CC4(CCCCC4)C3)c12` [compound 309, 4-(2-azaspiro[3.5]nonan-2-yl)-3-methyl-1-phenyl-1H-pyrazolo[3,4-b]pyridine-6-carboxylic acid], the “% Activation” value was 237.3% at ΔF508-CFTR [1] and 67.305% at ΔF508-CFTR [2] (setting [3]). Further, the EC50 at ΔF508-CFTR [1] and on ΔF508-CFTR [2] (setting [4]) was 1330 nM in each case.

Regarding `CC(C)c1nn(-c2cccc(N(C)C)c2)c2nc(C(=O)O)cc(-c3ccc(N(C)C4CCOCC4)nc3)c12` [compound 189, 1-[3-(dimethylamino)phenyl]-4-{6-[methyl(oxan-4-yl)amino]pyridin-3-yl}-3-(propan-2-yl)-1H-pyrazolo[3,4-b]pyridine-6-carboxylic acid], the “% Activation” value on ΔF508-CFTR [1] was 590.78%; at ΔF508-CFTR [2] (setting [3]), 385.02%. In addition, the figures for the EC50 on ΔF508-CFTR [1] and at ΔF508-CFTR [2] (setting [4]) were 292 nM and 514 nM, respectively.

For `O=C(O)c1cc(OCCN2CCCC2)c2c(C3CCC3)nn(-c3ccccc3)c2n1` [compound 628, 3-cyclobutyl-1-phenyl-4-[2-(pyrrolidin-1-yl)ethoxy]-1H-pyrazolo[3,4-b]pyridine-6-carboxylic acid], on ΔF508-CFTR [1], the “% Activation” value came out at 217.7% and the EC50 is 3330 nM. Moreover, at ΔF508-CFTR [2] (setting [5]), the “% Activation” value is 67.69% and the EC50 amounted to 3180 nM.

For the compound `Cc1nn(-c2ccccc2)c2nc(C(=O)O)cc(-c3ccc(N4CCN(CCO)CC4)cc3)c12` [compound 107], the results for the “% Activation” value on ΔF508-CFTR [1] and on ΔF508-CFTR [2] (setting [3]) were 164.5% and 20.98%, respectively. The EC50 at ΔF508-CFTR [1] was 3340 nM; at ΔF508-CFTR [2] (setting [4]) it was greater than 10000 nM.

Turning to `O=C(O)c1cc(N2CC[C@H](O)[C@H](F)C2)c2c(C3CCC3)nn(-c3ccccc3)c2n1` [compound 509, 3-cyclobutyl-4-[(3R,4S)-3-fluoro-4-hydroxypiperidin-1-yl]-1-phenyl-1H-pyrazolo[3,4-b]pyridine-6-carboxylic acid], on ΔF508-CFTR [1], the “% Activation” value is listed as 344.6% and the EC50 was determined as 1670 nM. Also, on ΔF508-CFTR [2] (setting [5]), the “% Activation” value is recorded as 123.6% and the EC50 stood at 1240 nM.

For `Cc1nn(-c2ccccc2)c2nc(C(=O)O)cc(O[C@@H]3CCCN(C)C3)c12` [compound 343, 3-methyl-4-{[(3R)-1-methylpiperidin-3-yl]oxy}-1-phenyl-1H-pyrazolo[3,4-b]pyridine-6-carboxylic acid], the “% Activation” value is 104.7% at ΔF508-CFTR [1] and 11.085% on ΔF508-CFTR [2] (setting [3]). The EC50 on ΔF508-CFTR [1] and on ΔF508-CFTR [2] (setting [4]) was 7500 nM each time.

On to `CC(C)c1nn(-c2ccc(F)cc2)c2nc(C(=O)O)cc(N3CCC(CCN4CCN(C)CC4)CC3)c12` [compound 785, 1-(4-fluorophenyl)-4-{4-[2-(4-methylpiperazin-1-yl)ethyl]piperidin-1-yl}-3-(propan-2-yl)-1H-pyrazolo[3,4-b]pyridine-6-carboxylic acid], for which the results for the “% Activation” value at ΔF508-CFTR [1] and on ΔF508-CFTR [2] (setting [5]) were 482.8% and 264.9%, respectively. The EC50 stood at 558 nM on ΔF508-CFTR [1] and 622 nM at ΔF508-CFTR [2] (setting [5]).

Take `CC(C)c1nn(C2CCCCC2)c2nc(C(=O)O)cc(-c3ccc(N4CCOCC4)nc3)c12` [compound 81, 1-cyclohexyl-4-[6-(morpholin-4-yl)pyridin-3-yl]-3-(propan-2-yl)-1H-pyrazolo[3,4-b]pyridine-6-carboxylic acid]: the “% Activation” value worked out at 398.25% on ΔF508-CFTR [1] and 193.6% at ΔF508-CFTR [2] (setting [3]). For the same compound, the EC50 was found to be 570 nM on ΔF508-CFTR [1] and 744 nM on ΔF508-CFTR [2] (setting [4]).

Consider `O=C(O)c1cc(N2CCC(O)CC2)c2c(C3CCC3)nn(-c3ccccc3)c2n1` [compound 501, 3-cyclobutyl-4-(4-hydroxypiperidin-1-yl)-1-phenyl-1H-pyrazolo[3,4-b]pyridine-6-carboxylic acid], for which the “% Activation” value at ΔF508-CFTR [1] is listed as 367.65%; at ΔF508-CFTR [2] (setting [5]) it was 152.7%. Moreover, the concentration for a half-maximal effect (EC50) worked out at 353 nM at ΔF508-CFTR [1] and 629 nM at ΔF508-CFTR [2] (setting [5]).
